Compared with CCOCc1nc2c(Cl)nc3ccccc3c2n1Cc1cc(-c2ccc(F)cc2)no1 [Example 29, 4-Chloro-2-(ethoxymethyl)-1-{[3-(4-fluorophenyl)isoxazol-5-yl]methyl}-1H-imidazo[4,5-c]quinoline], CCOCc1nc2c(N)nc3ccccc3c2n1Cc1cc(-c2ccc(F)cc2)no1 [Example 30, 2-(Ethoxymethyl)-1-{[3-(4-fluorophenyl)isoxazol-5-yl]methyl}-1H-imidazo[4,5-c]quinolin-4-amine] is higher in melting point: 189 to 190 °C for the first, 203 to 204 °C for the second.

First: Nc1nc2ccccc2c2c1nc(CO)n2Cc1cc(-c2ccc(F)cc2)no1 [Example 31, (4-Amino-1-{[3-(4-fluorophenyl)isoxazol-5-yl]methyl}-1H-imidazo[4,5-c]quinolin-2-yl)methanol]
Second: Nc1nc2ccccc2c2c1nc(CF)n2Cc1cc(-c2ccc(F)cc2)no1 [Example 32, 2-(Fluoromethyl)-1-{[3-(4-fluorophenyl)isoxazol-5-yl]methyl}-1H-imidazo[4,5-c]quinolin-4-amine]
The melting point of the first is higher: 262 to 263 °C for the first, 192 to 193 °C for the second.

First: Fc1ccc(-c2cc(Cn3cnc4c(Cl)nc5ccccc5c43)on2)cc1 [Example 24, 4-Chloro-1-{[3-(4-fluorophenyl)isoxazol-5-yl]methyl}-1H-imidazo[4,5-c]quinoline]
Second: Nc1nc2ccccc2c2c1ncn2Cc1cc(-c2ccc(F)cc2)no1 [Example 25, 1-{[3-(4-Fluorophenyl)isoxazol-5-yl]methyl}-1H-imidazo[4,5-c]quinolin-4-amine]
The melting point of the first is lower: 219 to 220 °C for the first, 259 to 260 °C for the second.

First: Nc1nc2c(c3c1ncn3Cc1cc(-c3ccc(F)cc3)no1)NCCC2 [Example 17, 1-{[3-(4-Fluorophenyl)isoxazol-5-yl]methyl}-6,7,8,9-tetrahydro-1H-imidazo[4,5-c][1,5]naphthyridin-4-amine]
Second: Cc1nc(N)c2ncn(Cc3cc(-c4ccc(F)cc4)no3)c2c1C [Example 18, 1-{[3-(4-Fluorophenyl)isoxazol-5-yl]methyl}-6,7-dimethyl-1H-imidazo[4,5-c]pyridin-4-amine]
The melting point of the first is lower: 227 to 228 °C for the first, 244 to 246 °C for the second.

First: CCOCc1nc2c(N)nc3ccccc3c2n1CCCc1cc(C)no1 [Example 8, 2-(Ethoxymethyl)-1-[3-(3-methylisoxazol-5-yl)propyl]-1H-imidazo[4,5-c]quinolin-4-amine]
Second: CCOCc1nc2c(N)nc3ccccc3c2n1Cc1cc(C)no1 [Example 4, 2-(Ethoxymethyl)-1-[(3-methylisoxazol-5-yl)methyl]-1H-imidazo[4,5-c]quinolin-4-amine]
The melting point of the first is lower: 163 to 164 °C for the first, 178 to 180 °C for the second.

First: CCOCc1nc2c(N)nc3ccccc3c2n1CCCc1cc(-c2cccnc2)no1 [Example 6, 2-(Ethoxymethyl)-1-[3-(3-pyridin-3-ylisoxazol-5-yl)propyl]-1H-imidazo[4,5-c]quinolin-4-amine]
Second: CCOCc1nc2c(N)nc3ccccc3c2n1Cc1cc(-c2cccnc2)no1 [Example 5, 2-(Ethoxymethyl)-1-[(3-pyridin-3-ylisoxazol-5-yl)methyl]-1H-imidazo[4,5-c]quinolin-4-amine]
The melting point of the first is lower: 199 to 200 °C for the first, 240 to 242 °C for the second.

First: CCOCc1nc2c(N)nc3ccccc3c2n1CCN1C(C)=NOC12CCCC2 [Example 16, 2-(Ethoxymethyl)-1-[2-(3-methyl-1-oxa-2,4-diazaspiro[4,4]non-2-en-4-yl)ethyl]-1H-imidazo[4,5-c]quinolin-4-amine]
Second: CCOCc1nc2c(N)nc3ccccc3c2n1CCN1C(C)=NOC1(C)C [Example 10, 2-Ethoxymethyl-1-[2-(3,5,5-trimethyl-1,2,4-oxadiazol-4(5H)-yl)ethyl]-1H-imidazo[4,5-c]quinolin-4-amine]
The melting point of the first is higher: 211 to 213 °C for the first, 204 to 205 °C for the second.

First: CCCc1nc2c(N)nc3ccccc3c2n1CCc1cc(-c2ccc(F)cc2)no1 [Example 34, 1-{2-[3-(4-Fluorophenyl)isoxazol-5-yl]ethyl}-2-propyl-1H-imidazo[4,5-c]quinolin-4-amine]
Second: CCCc1nc2c(N)nc3ccccc3c2n1Cc1cc(-c2ccc(F)cc2)no1 [Example 27, 1-{[3-(4-Fluorophenyl)isoxazol-5-yl]methyl}-2-propyl-1H-imidazo[4,5-c]quinolin-4-amine]
The melting point of the first is lower: 208 to 209 °C for the first, 226 to 227 °C for the second.

First: Cc1nc(N)c2nc(CO)n(Cc3cc(-c4ccc(F)cc4)no3)c2c1C [Example 20, (4-Amino-1-{[3-(4-fluorophenyl)isoxazol-5-yl]methyl}-6,7-dimethyl-1H-imidazo[4,5-c]pyridin-2-yl)methanol]
Second: CCc1nc2c(N)nc(C)c(C)c2n1Cc1cc(-c2ccc(F)cc2)no1 [Example 21, 2-Ethyl-1-{[3-(4-fluorophenyl)isoxazol-5-yl]methyl}-6,7-dimethyl-1H-imidazo[4,5-c]pyridin-4-amine]
The melting point of the first is lower: 164 to 165 °C for the first, 255 to 256 °C for the second.

First: CCOCc1nc2c(N)nc3cccnc3c2n1Cc1cc(-c2ccc(F)cc2)no1 [Example 12, 2-(Ethoxymethyl)-1-{[3-(4-fluorophenyl)isoxazol-5-yl]methyl}-1H-imidazo[4,5-c][1,5]naphthyridin-4-amine]
Second: CCCc1nc2c(N)nc3cccnc3c2n1Cc1cc(-c2ccc(F)cc2)no1 [Example 14, 1-{[3-(4-Fluorophenyl)isoxazol-5-yl]methyl}-2-propyl-1H-imidazo[4,5-c][1,5]naphthyridin-4-amine]
The melting point of the first is lower: 190 to 191 °C for the first, 238 to 239 °C for the second.

First: CCOCc1nc2c(N)nc(C)c(C)c2n1Cc1cc(-c2cccnc2)no1 [Example 9, 2-(Ethoxymethyl)-6,7-dimethyl-1-[(3-pyridin-3-ylisoxazol-5-yl)methyl]-1H-imidazo[4,5-c]pyridin-4-amine]
Second: CCOCc1nc2c(N)nc(C)c(C)c2n1Cc1cc(-c2ccc(F)cc2)no1 [Example 19, 2-(Ethoxymethyl)-1-{[3-(4-fluorophenyl)isoxazol-5-yl]methyl}-6,7-dimethyl-1H-imidazo[4,5-c]pyridin-4-amine]
The melting point of the first is lower: 189 to 191 °C for the first, 246 to 247 °C for the second.

First: CCOCc1nc2c(N)nc3ccccc3c2n1CCCc1cc(-c2ccccc2)no1 [Example 7, 2-(Ethoxymethyl)-1-[3-(3-phenylisoxazol-5-yl)propyl]-1H-imidazo[4,5-c]quinolin-4-amine]
Second: CCOCc1nc2c(N)nc3ccccc3c2n1Cc1cc(-c2ccccc2)no1 [Example 3, 2-(Ethoxymethyl)-1-[(3-phenylisoxazol-5-yl)methyl]-1H-imidazo[4,5-c]quinolin-4-amine]
The melting point of the first is lower: 171 to 172 °C for the first, 215 to 216 °C for the second.

First: Nc1nc2cccnc2c2c1nc(CO)n2Cc1cc(-c2ccc(F)cc2)no1 [Example 15, (4-Amino-1-{[3-(4-fluorophenyl)isoxazol-5-yl]methyl}-1H-imidazo[4,5-c][1,5]naphthyridin-2-yl)methanol]
Second: Cc1nc2c(N)nc3cccnc3c2n1Cc1cc(-c2ccc(F)cc2)no1 [Example 13, 1-{[3-(4-Fluorophenyl)isoxazol-5-yl]methyl}-2-methyl-1H-imidazo[4,5-c][1,5]naphthyridin-4-amine]
The melting point of the first is higher: 247 to 248 °C for the first, 239 to 240 °C for the second.

Compared with Cc1nc2c(N)nc3ccccc3c2n1Cc1cc(-c2ccc(F)cc2)no1 [Example 28, 1-{[3-(4-Fluorophenyl)isoxazol-5-yl]methyl}-2-methyl-1H-imidazo[4,5-c]quinolin-4-amine], CCc1nc2c(N)nc3ccccc3c2n1Cc1cc(-c2ccc(F)cc2)no1 [Example 26, 2-Ethyl-1-{[3-(4-fluorophenyl)isoxazol-5-yl]methyl}-1H-imidazo[4,5-c]quinolin-4-amine] is lower in melting point: 294 to 296 °C for the first, 232 to 233 °C for the second.

First: Cc1nc(N)c2nc(C)n(Cc3cc(-c4ccc(F)cc4)no3)c2c1C [Example 22, 1-{[3-(4-Fluorophenyl)isoxazol-5-yl]methyl}-2,6,7-trimethyl-1H-imidazo[4,5-c]pyridin-4-amine]
Second: CCCc1nc2c(N)nc(C)c(C)c2n1Cc1cc(-c2ccc(F)cc2)no1 [Example 23, 1-{[3-(4-Fluorophenyl)isoxazol-5-yl]methyl}-6,7-dimethyl-2-propyl-1H-imidazo[4,5-c]pyridin-4-amine]
The melting point of the first is higher: 278 to 279 °C for the first, 227 to 229 °C for the second.

Compared with CCOCc1nc2c(N)nc3ccccc3c2n1CC1CC(C)=NO1 (stereo not shown) [Example 1, 2-(Ethoxymethyl)-1-[(3-methyl-4,5-dihydroisoxazol-5-yl)methyl]-1H-imidazo[4,5-c]quinolin-4-amine], CCOCc1nc2c(N)nc3ccccc3c2n1CC1CC(c2ccccc2)=NO1 (stereo not shown) [Example 2, 2-(Ethoxymethyl)-1-[(3-phenyl-4,5-dihydroisoxazol-5-yl)methyl]-1H-imidazo[4,5-c]quinolin-4-amine] is higher in melting point: 204 to 205 °C for the first, 235 to 237 °C for the second.

First: Nc1nc2cccnc2c2c1ncn2Cc1cc(-c2ccc(F)cc2)no1 [Example 11, 1-{[3-(4-Fluorophenyl)isoxazol-5-yl]methyl}-1H-imidazo[4,5-c][1,5]naphthyridin-4-amine]
Second: CCOCc1nc2c(N)nc3ccccc3c2n1CCc1cc(-c2ccc(F)cc2)no1 [Example 33, 2-(Ethoxymethyl)-1-{2-[3-(4-fluorophenyl)isoxazol-5-yl]ethyl}-1H-imidazo[4,5-c]quinolin-4-amine]
The melting point of the first is higher: 265 to 266 °C for the first, 180 to 181 °C for the second.

First: CCCCc1cc(Cn2cnc3c(N)nc4ccccc4c32)no1 [Example 35, 1-[(5-Butylisoxazol-3-yl)methyl]-1H-imidazo[4,5-c]quinolin-4-amine]
Second: CCCc1nc2c(N)nc3ccccc3c2n1Cc1cc(-c2cccnc2)on1 [Example 36, 2-Propyl-1-[(5-pyridin-3-ylisoxazol-3-yl)methyl]-1H-imidazo[4,5-c]quinolin-4-amine]
The melting point of the first is lower: 201 to 203 °C for the first, 206 to 207 °C for the second.

Work on CCOCc1nc2c(N)nc3ccccc3c2n1Cc1cc(-c2ccccc2)on1 [Example 37, 2-(Ethoxymethyl)-1-[(5-phenylisoxazol-3-yl)methyl]-1H-imidazo[4,5-c]quinolin-4-amine] yielded a melting point of 221 to 223 °C.

From patent US7915281B2, “Isoxazole, dihydroisoxazole, and oxadiazole substituted imidazo ring compounds and method” (3M Innovative Properties Company, priority 2004, dated 2011)
